Laboratory results taken from BigSolDB 2.1.

CC(C(=O)O)c1ccc(CC2CCCC2=O)cc1 (stereo not given)
solubility (mole fraction)
Conditions	283.15 K	288.15 K	293.15 K	298.15 K	303.15 K	308.15 K	313.15 K	318.15 K	323.15 K	328.15 K
in 1,4-dioxane	0.154	0.171	0.19	0.214	0.246	0.272	0.304	0.339	0.378	0.408
in acetonitrile	0.0234	0.0296	0.0364	0.0419	0.059	0.0847	0.113	0.166	0.233	0.318
in ethanol	0.0573	0.0676	0.0717	0.0943	0.123	0.154	0.208	0.252	0.316	0.389
in ethyl acetate	0.0521	0.0621	0.0752	0.0848	0.0996	0.13	0.162	0.19	0.244	0.301
in ethyl orthosilicate	0.0247	0.0293	0.0325	0.0365	0.043	0.0491	0.0565	0.0694	0.0796	0.0991
in isobutyl acetate	0.0261	0.0314	0.0357	0.0451	0.0583	0.0688	0.0913	0.116	0.144	0.191
in isopentyl acetate	0.0253	0.0306	0.035	0.0448	0.0561	0.0674	0.0829	0.109	0.134	0.165
in isopropanol	0.0589	0.0747	0.0874	0.0966	0.128	0.145	0.189	0.224	0.277	0.339
in isopropyl acetate	0.0298	0.0373	0.0443	0.056	0.0694	0.0819	0.11	0.134	0.176	0.229
in methanol	0.0694	0.0783	0.0897	0.118	0.163	0.216	0.283	0.364	0.496	0.628
in methyl acetate	0.0568	0.0659	0.0797	0.0895	0.11	0.136	0.17	0.205	0.255	0.325
in n-butyl acetate	0.0284	0.0338	0.0418	0.0527	0.0621	0.0764	0.096	0.122	0.156	0.205
in n-propanol	0.0526	0.0643	0.0792	0.0905	0.116	0.139	0.184	0.223	0.269	0.338
in n-propyl acetate	0.0384	0.0483	0.0529	0.0631	0.0814	0.0978	0.127	0.155	0.199	0.261
